Measurements reported in the NIST ThermoML archive (doi:10.1016/j.jct.2013.12.025).
Numbers after ± are expanded uncertainties.

How the values were obtained:
[1] = refractive index (Na D-line) (dimensionless); conditions: 101.33 kPa, Liquid, Standard Abbe refractometry
[2] = 101 kPa, Liquid, Vibrating tube method
[3] = xn = mol fraction of the nth substance listed; conditions: 101 kPa, Liquid, Vibrating tube method, x2 = 0
[4] = refractive index (Na D-line) (dimensionless); xn = mol fraction of the nth substance listed; conditions: 101 kPa, Liquid, Standard Abbe refractometry, x2 = 0

| mass density ([3]; 283.15 K) [kg/m3] | mass density ([3]; 288.15 K) [kg/m3] | mass density ([3]; 293.15 K) [kg/m3] | mass density ([3]; 298.15 K) [kg/m3] | mass density ([3]; 303.15 K) [kg/m3] | refractive index ([4]; 283.15 K) | refractive index ([4]; 288.15 K) | refractive index ([4]; 293.15 K) | refractive index ([4]; 298.15 K) | refractive index ([4]; 303.15 K) | Compound | refractive index ([1]; 283.15 K) | refractive index ([1]; 288.15 K) | refractive index ([1]; 293.15 K) | refractive index ([1]; 298.15 K) | refractive index ([1]; 303.15 K) | mass density ([2]; 283.15 K) [kg/m3] | mass density ([2]; 288.15 K) [kg/m3] | mass density ([2]; 293.15 K) [kg/m3] | mass density ([2]; 298.15 K) [kg/m3] | mass density ([2]; 303.15 K) [kg/m3] |
| --- | --- | --- | --- | --- | --- | --- | --- | --- | --- | --- | --- | --- | --- | --- | --- | --- | --- | --- | --- | --- |
| 1003.3 ± 1 | 998.62 ± 1 | 994.01 ± 1 | 989.32 ± 1 | 984.59 ± 1 | 1.52242 ± 0.00031 | 1.51985 ± 0.00031 | 1.51724 ± 0.00031 | 1.5146 ± 0.00032 | 1.51191 ± 0.00032 | COc1ccccc1 [anisole] + C=C[Si](C)(C)O[Si](C)(C)C=C |  |  |  |  |  |  |  |  |  |  |
| 875.69 ± 1 | 871.3 ± 1 | 866.9 ± 1 | 862.58 ± 1 | 858.16 ± 1 | 1.50118 ± 0.00032 | 1.49845 ± 0.00032 | 1.49575 ± 0.00032 | 1.49301 ± 0.00032 | 1.4903 ± 0.00032 | CCc1ccccc1 [ethylbenzene] + C=C[Si](C)(C)O[Si](C)(C)C=C |  |  |  |  |  |  |  |  |  |  |
| 1036.89 ± 1 | 1030.93 ± 1 | 1024.96 ± 1 | 1019.07 ± 1 | 1013.03 ± 1 | 1.47152 ± 0.00032 | 1.46859 ± 0.00032 | 1.46571 ± 0.00032 | 1.46283 ± 0.00032 | 1.45989 ± 0.00032 | Fc1ccccc1 [fluorobenzene] + C=C[Si](C)(C)O[Si](C)(C)C=C |  |  |  |  |  |  |  |  |  |  |

Second part, the compound before the results:

| Compound | mass density ([3]; 283.15 K) [kg/m3] | mass density ([3]; 288.15 K) [kg/m3] | mass density ([3]; 293.15 K) [kg/m3] | mass density ([3]; 298.15 K) [kg/m3] | mass density ([3]; 303.15 K) [kg/m3] | refractive index ([4]; 283.15 K) | refractive index ([4]; 288.15 K) | refractive index ([4]; 293.15 K) | refractive index ([4]; 298.15 K) | refractive index ([4]; 303.15 K) | refractive index ([1]; 283.15 K) | refractive index ([1]; 288.15 K) | refractive index ([1]; 293.15 K) | refractive index ([1]; 298.15 K) | refractive index ([1]; 303.15 K) | mass density ([2]; 283.15 K) [kg/m3] | mass density ([2]; 288.15 K) [kg/m3] | mass density ([2]; 293.15 K) [kg/m3] | mass density ([2]; 298.15 K) [kg/m3] | mass density ([2]; 303.15 K) [kg/m3] |
| --- | --- | --- | --- | --- | --- | --- | --- | --- | --- | --- | --- | --- | --- | --- | --- | --- | --- | --- | --- | --- |
| C=C[Si](C)(C)O[Si](C)(C)C=C [1,3-diethenyl-1,1,3,3-tetramethyldisiloxane] |  |  |  |  |  |  |  |  |  |  | 1.41766 ± 0.00032 | 1.415 ± 0.00032 | 1.41236 ± 0.00032 | 1.4097 ± 0.00032 | 1.40707 ± 0.00032 | 822.67 ± 1 | 817.77 ± 1 | 812.92 ± 1 | 808 ± 1 | 803.07 ± 1 |
| COc1ccccc1 [anisole] |  |  |  |  |  |  |  |  |  |  | 1.52242 ± 0.00031 | 1.51985 ± 0.00031 | 1.51724 ± 0.00031 | 1.5146 ± 0.00032 | 1.51191 ± 0.00032 | 1003.3 ± 1 | 998.62 ± 1 | 994.01 ± 1 | 989.32 ± 1 | 984.59 ± 1 |
| Clc1ccccc1 [chlorobenzene] |  |  |  |  |  |  |  |  |  |  | 1.52992 ± 0.00032 | 1.52722 ± 0.00032 | 1.52446 ± 0.00032 | 1.52168 ± 0.00032 | 1.51893 ± 0.00032 | 1117.29 ± 1 | 1111.89 ± 1 | 1106.55 ± 1 | 1101.16 ± 1 | 1095.79 ± 1 |
| Clc1ccccc1 [chlorobenzene] + C=C[Si](C)(C)O[Si](C)(C)C=C | 1117.29 ± 1 | 1111.89 ± 1 | 1106.55 ± 1 | 1101.16 ± 1 | 1095.79 ± 1 | 1.52992 ± 0.00032 | 1.52722 ± 0.00032 | 1.52446 ± 0.00032 | 1.52168 ± 0.00032 | 1.51893 ± 0.00032 |  |  |  |  |  |  |  |  |  |  |
| CCc1ccccc1 [ethylbenzene] |  |  |  |  |  |  |  |  |  |  | 1.50118 ± 0.00032 | 1.49845 ± 0.00032 | 1.49575 ± 0.00032 | 1.49301 ± 0.00032 | 1.4903 ± 0.00032 | 875.69 ± 1 | 871.3 ± 1 | 866.9 ± 1 | 862.58 ± 1 | 858.16 ± 1 |
| Fc1ccccc1 [fluorobenzene] |  |  |  |  |  |  |  |  |  |  | 1.47152 ± 0.00032 | 1.46859 ± 0.00032 | 1.46571 ± 0.00032 | 1.46283 ± 0.00032 | 1.45989 ± 0.00032 | 1036.89 ± 1 | 1030.93 ± 1 | 1024.96 ± 1 | 1019.07 ± 1 | 1013.03 ± 1 |
| O=[N+]([O-])c1ccccc1 [nitrobenzene] |  |  |  |  |  |  |  |  |  |  | 1.55729 ± 0.00031 | 1.55485 ± 0.00031 | 1.55234 ± 0.00031 | 1.54992 ± 0.00031 | 1.54746 ± 0.00031 | 1212.99 ± 1 | 1208.01 ± 1 | 1203.05 ± 1 | 1198.2 ± 1 | 1193.25 ± 1 |
| O=[N+]([O-])c1ccccc1 [nitrobenzene] + C=C[Si](C)(C)O[Si](C)(C)C=C | 1212.99 ± 1 | 1208.01 ± 1 | 1203.05 ± 1 | 1198.2 ± 1 | 1193.25 ± 1 | 1.55729 ± 0.00031 | 1.55485 ± 0.00031 | 1.55234 ± 0.00031 | 1.54992 ± 0.00031 | 1.54746 ± 0.00031 |  |  |  |  |  |  |  |  |  |  |
